Data on 3 molecules can be found in ChEMBL document CHEMBL1152560, “Substituted 2-arylbenzothiazoles as kinase inhibitors: hit-to-lead optimization” (Bioorg Med Chem, 2009).

Assay [1] has as its target Protein kinase C alpha type (Homo sapiens) (UniProt P17252). Kind of assay: Residual activity of PKCalpha at 1 uM by microplate scintillation counting.
In assay [2] the target is T1, MAP kinase-activated protein kinase 5 (Homo sapiens) (UniProt Q8IW41).
T1 sequence (whole entry): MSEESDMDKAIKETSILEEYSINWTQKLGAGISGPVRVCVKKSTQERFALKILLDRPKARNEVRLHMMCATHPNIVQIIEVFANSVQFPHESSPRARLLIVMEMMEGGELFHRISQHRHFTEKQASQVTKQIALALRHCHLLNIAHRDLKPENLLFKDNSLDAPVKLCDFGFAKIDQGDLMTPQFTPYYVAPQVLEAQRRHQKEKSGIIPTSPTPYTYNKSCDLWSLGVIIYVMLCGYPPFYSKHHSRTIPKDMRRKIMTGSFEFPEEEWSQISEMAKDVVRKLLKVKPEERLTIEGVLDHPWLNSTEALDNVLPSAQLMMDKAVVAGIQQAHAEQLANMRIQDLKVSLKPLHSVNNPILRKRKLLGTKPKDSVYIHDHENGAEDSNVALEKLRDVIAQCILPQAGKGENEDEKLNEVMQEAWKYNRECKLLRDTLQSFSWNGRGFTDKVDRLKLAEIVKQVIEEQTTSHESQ
Kind of assay: Residual activity of MAPKAPK5 at 1 uM by microplate scintillation counting.

Assay [3] concerns the target Proto-oncogene tyrosine-protein kinase ROS (Homo sapiens) (UniProt P08922). Kind of assay: Residual activity of ROS at 1 uM by microplate scintillation counting.
Assay [4] concerns the target T2, Serine/threonine-protein kinase Sgk1 (Homo sapiens) (UniProt O00141).
T2 sequence (whole entry): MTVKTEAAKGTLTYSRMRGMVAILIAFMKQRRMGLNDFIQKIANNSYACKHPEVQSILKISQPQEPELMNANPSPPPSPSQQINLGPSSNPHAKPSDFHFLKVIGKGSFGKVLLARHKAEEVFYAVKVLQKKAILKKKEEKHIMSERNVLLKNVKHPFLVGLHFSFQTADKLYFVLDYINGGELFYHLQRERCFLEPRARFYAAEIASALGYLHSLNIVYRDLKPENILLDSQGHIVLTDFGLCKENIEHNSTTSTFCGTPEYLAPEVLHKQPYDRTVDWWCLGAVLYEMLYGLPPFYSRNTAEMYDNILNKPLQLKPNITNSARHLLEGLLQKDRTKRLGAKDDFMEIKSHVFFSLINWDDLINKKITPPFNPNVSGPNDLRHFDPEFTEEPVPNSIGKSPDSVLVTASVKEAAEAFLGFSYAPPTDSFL
Kind of assay: Residual activity of SGK1 at 1 uM by microplate scintillation counting.

In assay [5] the target is T3, Inhibitor of nuclear factor kappa-B kinase subunit epsilon (Homo sapiens) (UniProt Q14164).
T3 sequence (whole entry): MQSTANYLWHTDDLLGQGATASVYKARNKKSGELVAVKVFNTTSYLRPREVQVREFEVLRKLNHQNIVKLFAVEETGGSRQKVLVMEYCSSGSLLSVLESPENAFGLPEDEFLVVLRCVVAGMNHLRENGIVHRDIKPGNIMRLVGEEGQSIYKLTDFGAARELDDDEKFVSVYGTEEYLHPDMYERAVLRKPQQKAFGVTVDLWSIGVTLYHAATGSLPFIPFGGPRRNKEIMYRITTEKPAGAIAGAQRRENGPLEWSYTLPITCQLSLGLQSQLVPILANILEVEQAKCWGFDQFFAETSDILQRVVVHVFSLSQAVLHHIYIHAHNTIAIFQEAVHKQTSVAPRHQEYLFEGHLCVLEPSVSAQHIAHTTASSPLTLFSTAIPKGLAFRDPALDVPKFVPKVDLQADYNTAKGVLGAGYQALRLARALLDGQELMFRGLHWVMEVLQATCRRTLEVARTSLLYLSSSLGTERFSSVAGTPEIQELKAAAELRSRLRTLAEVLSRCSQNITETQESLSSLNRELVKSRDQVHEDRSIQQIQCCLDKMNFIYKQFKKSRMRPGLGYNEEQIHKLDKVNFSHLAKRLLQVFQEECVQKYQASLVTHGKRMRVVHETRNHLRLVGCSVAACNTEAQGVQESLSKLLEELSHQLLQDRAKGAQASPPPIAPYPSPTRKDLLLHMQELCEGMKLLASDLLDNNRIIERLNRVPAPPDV
Kind of assay: Residual activity of IKKepsilon at 10 uM by microplate scintillation counting.

The target of assay [6] is Tyrosine-protein kinase JAK2 (Homo sapiens) (UniProt O60674). Kind of assay: Residual activity of JAK2 at 10 uM by microplate scintillation counting.
In assay [7] the target is T4, Tyrosine-protein kinase ZAP-70 (Homo sapiens) (UniProt P43403).
T4 sequence (whole entry): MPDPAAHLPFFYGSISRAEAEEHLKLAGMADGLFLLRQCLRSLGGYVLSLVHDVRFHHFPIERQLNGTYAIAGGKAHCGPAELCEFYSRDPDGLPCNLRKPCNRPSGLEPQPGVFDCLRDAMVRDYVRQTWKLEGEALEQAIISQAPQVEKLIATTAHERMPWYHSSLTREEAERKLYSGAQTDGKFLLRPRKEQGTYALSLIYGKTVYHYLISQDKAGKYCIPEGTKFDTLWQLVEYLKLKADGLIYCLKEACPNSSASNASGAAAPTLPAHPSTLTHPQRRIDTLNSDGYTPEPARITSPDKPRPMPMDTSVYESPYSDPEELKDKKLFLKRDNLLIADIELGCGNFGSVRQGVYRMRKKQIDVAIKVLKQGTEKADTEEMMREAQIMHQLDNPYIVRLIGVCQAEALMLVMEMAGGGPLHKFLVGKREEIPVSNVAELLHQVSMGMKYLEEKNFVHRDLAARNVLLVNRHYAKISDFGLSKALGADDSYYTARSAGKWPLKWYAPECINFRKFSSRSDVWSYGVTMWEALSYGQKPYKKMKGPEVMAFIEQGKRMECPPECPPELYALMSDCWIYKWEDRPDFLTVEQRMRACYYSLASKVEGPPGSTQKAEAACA
Kind of assay: Residual activity of ZAP70 at 0.1 uM by microplate scintillation counting.

Assay [8] deals with NT-3 growth factor receptor (Homo sapiens) (UniProt Q16288). Kind of assay: Residual activity of TRK-C at 0.1 uM by microplate scintillation counting.
Sequence of NT-3 growth factor receptor (Homo sapiens) (Q16288 32-839 limits assumed): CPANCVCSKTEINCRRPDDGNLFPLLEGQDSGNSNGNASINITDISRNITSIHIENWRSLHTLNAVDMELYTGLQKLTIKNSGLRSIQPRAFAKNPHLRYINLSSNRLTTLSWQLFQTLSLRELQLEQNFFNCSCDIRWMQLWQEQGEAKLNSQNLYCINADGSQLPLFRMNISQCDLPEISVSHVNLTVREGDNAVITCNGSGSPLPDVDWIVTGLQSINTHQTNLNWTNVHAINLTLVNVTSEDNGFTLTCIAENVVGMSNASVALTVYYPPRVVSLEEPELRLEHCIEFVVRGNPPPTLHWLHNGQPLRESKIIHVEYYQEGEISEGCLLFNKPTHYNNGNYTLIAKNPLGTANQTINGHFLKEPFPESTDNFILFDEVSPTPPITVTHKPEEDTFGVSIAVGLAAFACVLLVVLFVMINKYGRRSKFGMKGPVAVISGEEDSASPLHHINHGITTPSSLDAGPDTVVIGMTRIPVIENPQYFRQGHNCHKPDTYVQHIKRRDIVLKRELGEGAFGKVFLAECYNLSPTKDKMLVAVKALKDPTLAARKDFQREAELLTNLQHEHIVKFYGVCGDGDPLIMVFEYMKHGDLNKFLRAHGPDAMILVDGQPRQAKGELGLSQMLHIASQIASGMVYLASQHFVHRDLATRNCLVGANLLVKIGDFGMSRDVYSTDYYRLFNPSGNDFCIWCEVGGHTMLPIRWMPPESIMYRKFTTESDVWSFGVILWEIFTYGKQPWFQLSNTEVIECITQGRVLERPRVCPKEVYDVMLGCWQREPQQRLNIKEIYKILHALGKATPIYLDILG

Sequence of Tyrosine-protein kinase JAK2 (Homo sapiens) (O60674 whole entry): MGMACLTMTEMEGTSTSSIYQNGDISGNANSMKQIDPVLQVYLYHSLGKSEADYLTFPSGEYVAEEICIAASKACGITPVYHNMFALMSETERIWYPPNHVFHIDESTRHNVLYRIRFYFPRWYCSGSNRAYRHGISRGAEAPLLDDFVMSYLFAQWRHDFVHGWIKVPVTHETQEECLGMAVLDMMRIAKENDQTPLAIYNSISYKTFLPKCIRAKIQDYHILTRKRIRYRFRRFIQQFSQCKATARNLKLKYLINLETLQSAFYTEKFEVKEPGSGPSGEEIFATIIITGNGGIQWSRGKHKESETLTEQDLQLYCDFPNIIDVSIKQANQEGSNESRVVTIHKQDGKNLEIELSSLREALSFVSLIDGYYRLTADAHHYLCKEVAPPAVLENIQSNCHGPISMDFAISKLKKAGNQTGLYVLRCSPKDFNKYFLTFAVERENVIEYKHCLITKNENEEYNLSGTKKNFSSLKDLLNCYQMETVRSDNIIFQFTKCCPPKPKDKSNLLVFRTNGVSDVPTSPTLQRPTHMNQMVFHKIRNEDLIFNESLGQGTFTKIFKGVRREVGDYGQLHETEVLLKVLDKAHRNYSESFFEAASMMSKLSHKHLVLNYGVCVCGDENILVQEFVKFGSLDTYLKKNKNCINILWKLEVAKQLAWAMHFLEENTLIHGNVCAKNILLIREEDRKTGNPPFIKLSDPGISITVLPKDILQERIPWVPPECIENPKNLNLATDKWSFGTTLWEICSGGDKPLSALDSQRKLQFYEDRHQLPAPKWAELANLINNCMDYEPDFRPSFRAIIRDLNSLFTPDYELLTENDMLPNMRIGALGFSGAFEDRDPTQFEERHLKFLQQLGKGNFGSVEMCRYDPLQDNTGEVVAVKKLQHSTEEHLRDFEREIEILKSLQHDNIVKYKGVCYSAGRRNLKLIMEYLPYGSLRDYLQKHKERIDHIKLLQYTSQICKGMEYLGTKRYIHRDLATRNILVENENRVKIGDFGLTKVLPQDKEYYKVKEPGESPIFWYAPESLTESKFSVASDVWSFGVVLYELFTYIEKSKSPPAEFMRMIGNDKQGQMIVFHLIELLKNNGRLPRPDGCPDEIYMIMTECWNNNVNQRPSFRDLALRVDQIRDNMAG
Sequence of Proto-oncogene tyrosine-protein kinase ROS (Homo sapiens) (P08922 whole entry): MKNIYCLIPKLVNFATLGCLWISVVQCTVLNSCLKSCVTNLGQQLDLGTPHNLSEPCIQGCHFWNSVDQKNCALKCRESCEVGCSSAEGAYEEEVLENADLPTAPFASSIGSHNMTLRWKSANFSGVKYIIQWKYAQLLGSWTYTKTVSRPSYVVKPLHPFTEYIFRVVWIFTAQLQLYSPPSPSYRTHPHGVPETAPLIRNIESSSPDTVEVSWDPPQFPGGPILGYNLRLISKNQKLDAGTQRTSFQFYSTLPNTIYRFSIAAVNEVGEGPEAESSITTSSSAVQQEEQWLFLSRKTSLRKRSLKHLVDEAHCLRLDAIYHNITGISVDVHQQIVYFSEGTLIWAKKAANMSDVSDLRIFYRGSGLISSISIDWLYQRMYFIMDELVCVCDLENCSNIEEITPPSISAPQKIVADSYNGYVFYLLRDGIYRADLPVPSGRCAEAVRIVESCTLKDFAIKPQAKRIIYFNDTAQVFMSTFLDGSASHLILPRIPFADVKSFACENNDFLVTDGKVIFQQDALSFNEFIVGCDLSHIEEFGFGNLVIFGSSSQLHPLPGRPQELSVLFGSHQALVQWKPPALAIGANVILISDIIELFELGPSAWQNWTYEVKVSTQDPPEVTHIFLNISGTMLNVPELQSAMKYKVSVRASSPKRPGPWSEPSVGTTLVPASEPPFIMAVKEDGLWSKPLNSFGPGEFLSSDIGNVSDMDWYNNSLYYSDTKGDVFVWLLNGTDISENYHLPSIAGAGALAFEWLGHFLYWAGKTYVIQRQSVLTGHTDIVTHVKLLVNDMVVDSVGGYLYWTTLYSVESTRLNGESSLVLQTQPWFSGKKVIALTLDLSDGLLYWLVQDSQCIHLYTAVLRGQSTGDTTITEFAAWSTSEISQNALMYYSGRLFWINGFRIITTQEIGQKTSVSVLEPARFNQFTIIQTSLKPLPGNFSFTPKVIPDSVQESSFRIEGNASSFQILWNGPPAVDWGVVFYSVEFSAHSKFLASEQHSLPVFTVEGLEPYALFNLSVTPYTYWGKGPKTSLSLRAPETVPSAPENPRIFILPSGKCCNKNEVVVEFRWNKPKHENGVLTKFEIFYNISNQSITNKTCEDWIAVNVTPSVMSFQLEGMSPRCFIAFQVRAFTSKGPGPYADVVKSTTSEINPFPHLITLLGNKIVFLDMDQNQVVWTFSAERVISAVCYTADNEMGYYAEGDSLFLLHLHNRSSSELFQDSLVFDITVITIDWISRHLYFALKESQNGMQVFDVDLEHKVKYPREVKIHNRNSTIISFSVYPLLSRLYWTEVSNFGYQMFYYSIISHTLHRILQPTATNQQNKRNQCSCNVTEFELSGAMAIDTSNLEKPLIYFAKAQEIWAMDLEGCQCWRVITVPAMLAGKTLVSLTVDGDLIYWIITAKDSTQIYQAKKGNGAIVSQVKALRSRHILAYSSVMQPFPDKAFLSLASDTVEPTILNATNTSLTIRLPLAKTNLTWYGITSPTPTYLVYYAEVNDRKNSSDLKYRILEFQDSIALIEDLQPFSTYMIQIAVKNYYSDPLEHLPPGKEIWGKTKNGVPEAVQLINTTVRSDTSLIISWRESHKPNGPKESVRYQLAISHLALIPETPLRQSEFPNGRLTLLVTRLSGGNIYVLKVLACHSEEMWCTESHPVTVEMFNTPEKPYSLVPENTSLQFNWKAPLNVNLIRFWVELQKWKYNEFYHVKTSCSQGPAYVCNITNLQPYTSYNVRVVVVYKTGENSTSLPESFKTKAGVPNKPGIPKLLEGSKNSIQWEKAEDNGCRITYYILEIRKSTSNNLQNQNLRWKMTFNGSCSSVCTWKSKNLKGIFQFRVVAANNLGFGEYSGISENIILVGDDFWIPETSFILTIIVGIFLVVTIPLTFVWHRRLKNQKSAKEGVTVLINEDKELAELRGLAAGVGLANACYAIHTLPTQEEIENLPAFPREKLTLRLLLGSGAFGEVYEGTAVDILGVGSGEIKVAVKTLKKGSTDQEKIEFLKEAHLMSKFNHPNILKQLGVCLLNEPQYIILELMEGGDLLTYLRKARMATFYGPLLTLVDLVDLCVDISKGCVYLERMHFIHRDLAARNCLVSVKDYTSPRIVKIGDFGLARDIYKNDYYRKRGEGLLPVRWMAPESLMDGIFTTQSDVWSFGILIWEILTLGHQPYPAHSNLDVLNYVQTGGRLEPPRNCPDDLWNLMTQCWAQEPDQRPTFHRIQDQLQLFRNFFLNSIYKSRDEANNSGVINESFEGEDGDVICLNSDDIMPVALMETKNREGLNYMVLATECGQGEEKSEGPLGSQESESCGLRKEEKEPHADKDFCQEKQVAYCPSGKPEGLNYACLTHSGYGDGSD

In the case of `COc1cc2c(Oc3ccc(-c4nc5ccccc5s4)cc3F)ncnc2cc1OCCCN1CCN(C)CC1`, the residual activity in assay [1] stood at 98%; in assay [2] it was 90%; in assay [3], 102%; in assay [4], 96%; in assay [5] it was 76%; in assay [6], 60%. Further, the values for the residual activity in assay [7] and in assay [8] were 108% and 110%, respectively.

For the molecule `COc1cc2c(Oc3ccc(-c4nc5ccccc5s4)cc3)ncnc2cc1OCCCN1CCN(C)CC1`, the residual activity in assay [1] was determined as 99%; in assay [2], 107%; in assay [3], 97%; in assay [4], 86%; in assay [5], 101%; in assay [6], 67%. In addition, the residual activity came out at 112% in assay [7] and 97% in assay [8].

Regarding `COc1cc2c(Oc3ccc(-c4nc5ccccc5s4)cc3)ncnc2cc1OCCCN1CCCC1`, the residual activity in assay [1] was found to be 128%; in assay [2] it was 90%; in assay [3] it was 98%; in assay [4] it was 99%; in assay [5], 99%; in assay [6], 67%. In addition, the results for the residual activity in assay [7] and in assay [8] were 111% and 109%, respectively.
